Data on 7 molecules can be found in PubChem BioAssay (NCI).

The structures appear in SMILES notation. Values joined by “and” are separate entries in the source; they are usually repeats but may differ in a detail not shown here. Equal values may be shown once.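 These data come from cells grown in 96-well plates and exposed to compound for 48 hours at five concentrations. Abbreviation: GI50, concentration required for 50% inhibition of growth. TGI: concentration producing complete growth inhibition.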

Test systems include HOP-62 NSCLC; 786-0 renal; NCI-H23 lung; LOX IMVI melanoma; DU-145 prostate; MDA-MB-231 breast; COLO 205 colon; HCT-116 colon; OVCAR-4 ovarian; NCI-H522 lung.
Holding throughout (test): NCI anticancer screen, dose series, 48 h

As for `Cc1cc(N2CCOCC2)nc(N(CCCNc2ccnc3cc(Cl)ccc23)Cc2ccco2)n1`, the GI50 was 1.73 µM in the assay on HOP-62 NSCLC; 1.58 µM in the assay with 786-0 renal; 2.76 µM in the assay with NCI-H23 lung; 1.58 µM in the assay on LOX IMVI melanoma; 3.23 µM with DU-145 prostate; 3.2 µM in the assay on MDA-MB-231 breast. The GI50 is 1.71 µM with COLO 205 colon, 2.2 µM in the assay on HCT-116 colon, 3.07 µM in the assay with OVCAR-4 ovarian and 2.69 µM in the assay with NCI-H522 lung. Further, the TGI in the assay on HOP-62 NSCLC worked out at 6 µM; with 786-0 renal it was 3.17 µM; in the assay with NCI-H23 lung, 12.7 µM; in the assay on LOX IMVI melanoma, 3.81 µM; in the assay with DU-145 prostate, 14.2 µM; in the assay on MDA-MB-231 breast, 13.4 µM. Further, the TGI worked out at 3.72 µM in the assay on COLO 205 colon, 10.5 µM in the assay on HCT-116 colon, 15.2 µM in the assay on OVCAR-4 ovarian and 10.9 µM with NCI-H522 lung.

In the case of `C[N+](C)(C)CC(=O)N/N=C(\C(=O)NC1=C(Cl)C(=O)c2ccccc2C1=O)C(C#N)c1nc(-c2ccc([N+](=O)[O-])cc2)cs1` (centres undefined), the TGI with HOP-62 NSCLC was 34.4 µM; in the assay with 786-0 renal, 29.1 µM; with NCI-H23 lung, 11.4 µM; in the assay with LOX IMVI melanoma it was 9.48 µM; in the assay with DU-145 prostate, 14.1 µM; in the assay on MDA-MB-231 breast, 39.3 µM. The TGI in the assay with COLO 205 colon was 35 µM; in the assay on HCT-116 colon, 20.8 µM; in the assay on OVCAR-4 ovarian, 23.3 µM; in the assay with NCI-H522 lung, 19.2 µM.

With `COc1cc(C2=N/C(=C/c3cccs3)C(=O)O2)cc(OC)c1OC`, the TGI with HOP-62 NSCLC, in the assay with 786-0 renal, in the assay with NCI-H23 lung, in the assay on LOX IMVI melanoma, in the assay on DU-145 prostate and in the assay with MDA-MB-231 breast was more than 100 µM each time. The TGI in the assay with COLO 205 colon, in the assay with HCT-116 colon, in the assay with OVCAR-4 ovarian and in the assay on NCI-H522 lung was more than 100 µM throughout.

For `CC([C@H]1CCC2C3CCC4C[C@@H](N)CC[C@]4(C)C3CC[C@@]21C)N(C)C` (some centres undefined), the GI50 with HOP-62 NSCLC is 6.1 µM; with 786-0 renal it was 4.99 µM; in the assay with NCI-H23 lung, 13.8 µM; in the assay on LOX IMVI melanoma, 1.61 µM; in the assay on DU-145 prostate, 14.3 µM; in the assay with MDA-MB-231 breast, 5.72 µM. In addition, the GI50 was 1.89 µM with COLO 205 colon, 1.9 µM in the assay on HCT-116 colon, 9.12 µM in the assay with OVCAR-4 ovarian and 7.25 µM in the assay on NCI-H522 lung. The TGI was 12 µM with HOP-62 NSCLC; 11.6 µM with 786-0 renal; 37.2 µM with NCI-H23 lung; 3.44 µM in the assay on LOX IMVI melanoma; more than 48.4 µM in the assay with DU-145 prostate; 16.5 µM with MDA-MB-231 breast. Besides, the TGI is 4.37 µM with COLO 205 colon, 5.02 µM with HCT-116 colon, 38.9 µM in the assay on OVCAR-4 ovarian and 21.3 µM with NCI-H522 lung.

For `CC(C)=CCC/C(C)=C\CCC1(C)OC(=O)C2CC21` (centres undefined), the TGI with HOP-62 NSCLC was more than 100 µM; with 786-0 renal it was > 100 µM and 32.7 µM; with NCI-H23 lung, more than 100 µM; in the assay with LOX IMVI melanoma, 81.8 µM and 29 µM; with DU-145 prostate it was more than 100 µM; with MDA-MB-231 breast it was more than 100 µM. Also, the TGI in the assay on COLO 205 colon was more than 100 µM; in the assay on HCT-116 colon, > 100 µM and 31.6 µM; in the assay with OVCAR-4 ovarian, > 100 µM and 42.6 µM; with NCI-H522 lung, > 100 µM and 47.1 µM. Moreover, the GI50 in the assay with 786-0 renal was > 100 µM and 17.5 µM; in the assay with HCT-116 colon it was 52.3 µM and 16.6 µM; in the assay with OVCAR-4 ovarian, > 100 µM and 19.5 µM; in the assay on NCI-H522 lung it was 52.4 µM and 19.2 µM.

Take `CC(=[N-])N1CCC[C@@H](Nc2c3ccccc3nc3ccccc23)C1.[Cl][Pt].[NH-]CCC[NH-]`: the GI50 with HOP-62 NSCLC was 1.72 µM; with 786-0 renal, 3.89 µM; with NCI-H23 lung, 0.198 µM; with LOX IMVI melanoma, 2.25 µM; with DU-145 prostate, 0.0326 µM; in the assay with MDA-MB-231 breast, 2.1 µM. Also, the GI50 was 0.431 µM in the assay with COLO 205 colon, 1.28 µM in the assay with HCT-116 colon, 1.25 µM in the assay with OVCAR-4 ovarian and 0.0258 µM with NCI-H522 lung. Also, the TGI is more than 100 µM in the assay with HOP-62 NSCLC; more than 24.8 µM in the assay with 786-0 renal; 2.75 µM in the assay with NCI-H23 lung; more than 21.9 µM with LOX IMVI melanoma; more than 100 µM in the assay with DU-145 prostate; 89.1 µM in the assay with MDA-MB-231 breast. Further, the TGI in the assay with COLO 205 colon was 2.69 µM; with HCT-116 colon, more than 100 µM; in the assay with OVCAR-4 ovarian it was 38.9 µM; in the assay with NCI-H522 lung, 0.165 µM.

On to `NS(=O)(=O)NCCNc1nonc1C(=Nc1ccc(F)c(Br)c1)NO`, for which the GI50 in the assay with HOP-62 NSCLC is more than 100 µM; in the assay on 786-0 renal, 48.8 µM; with NCI-H23 lung, 28.9 µM; with LOX IMVI melanoma it was 27.9 µM; with DU-145 prostate it was 51.2 µM; in the assay with MDA-MB-231 breast, 34 µM. For the same molecule, the GI50 was 47.6 µM with COLO 205 colon, 42.6 µM in the assay with HCT-116 colon, 32.8 µM with OVCAR-4 ovarian and 36.2 µM in the assay on NCI-H522 lung. The TGI with HOP-62 NSCLC, with 786-0 renal, in the assay on NCI-H23 lung, with LOX IMVI melanoma, in the assay with DU-145 prostate and with MDA-MB-231 breast was more than 100 µM throughout. For the same molecule, the TGI was more than 100 µM in the assay with COLO 205 colon, more than 100 µM in the assay on HCT-116 colon, more than 100 µM in the assay on OVCAR-4 ovarian and 97.5 µM with NCI-H522 lung.
